Assay results taken from US20190105367A1, “ANTIMICROBIAL 4-OXOQUINOLIZINES” (Emergent Product Development Gaithersburg Inc., priority 2011, published 2019).
Converted amounts (≈) assume the structure as drawn. Where two headings read alike, the source gives them in different places.

Assays:
A. baumannii ATCC 19606 [1] = assay: MIC without and with sub-inhibitory polymyxin B (Example 4); format: cell-based, Acinetobacter baumannii; details: for MIC without PB/MIC + PB: A. baumannii ATCC 19606; for MIC: Acinetobacter baumannii
A. baumannii ATCC 19606 [2] = assay: Preliminary MBC without and with sub-inhibitory polymyxin B (Example 4); format: cell-based, Acinetobacter baumannii; details: Acinetobacter baumannii
A. baumannii J2 [3] = assay: MIC without and with sub-inhibitory polymyxin B (Example 4); format: cell-based, Acinetobacter baumannii; details: for MIC without PB/MIC + PB: A. baumannii J2; for MIC: Acinetobacter baumannii
A. baumannii J2 [4] = assay: Preliminary MBC without and with sub-inhibitory polymyxin B (Example 4); format: cell-based, Acinetobacter baumannii; details: Acinetobacter baumannii
[5] = tested on: Acinetobacter sp. (H064200250); assay: MIC without and with sub-inhibitory polymyxin B (Example 4); format: cell-based; details: for MIC: Acinetobacter
[6] = tested on: Acinetobacter sp. (H064200250); assay: Preliminary MBC without and with sub-inhibitory polymyxin B (Example 4); format: cell-based; details: Acinetobacter
In short: (§1)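 Read-out: the minimum concentration at which colonies were reduced by ca. 90% relative to positive control, usually seen as isolated colonies or a clear plate. Plates had been kept 18-20 hours at 37° C beforehand.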

A. baumannii A329 [7] = assay: MIC without and with sub-inhibitory polymyxin B (Example 4); format: cell-based, Acinetobacter baumannii; details: +0.06 μg/ml PB, 2nd experiment
A. baumannii A329 [8] = assay: Preliminary MBC without and with sub-inhibitory polymyxin B (Example 4); format: cell-based, Acinetobacter baumannii; details: Acinetobacter baumannii, A329, A. baumannii A329, +0.06 μg/ml PB, 2nd experiment, read-out: MBC
A. baumannii A387 [9] = assay: MIC without and with sub-inhibitory polymyxin B (Example 4); format: cell-based, Acinetobacter baumannii; details: for MIC without PB/MIC + PB: A. baumannii A387; for MIC: Acinetobacter baumannii
A. baumannii A387 [10] = assay: Preliminary MBC without and with sub-inhibitory polymyxin B (Example 4); format: cell-based, Acinetobacter baumannii; details: Acinetobacter baumannii
A. baumannii A14 [11] = assay: as above; format: cell-based, Acinetobacter baumannii; details: 2nd experiment
In short: as §1

A. baumannii A390 = assay: as above; format: cell-based, Acinetobacter baumannii; details: Acinetobacter baumannii, A390, A. baumannii A390, +0.06 μg/ml PB, 2nd experiment, read-out: MBC
In short: as §1

A. baumannii A473 [12] = assay: as above; format: cell-based, Acinetobacter baumannii; details: Acinetobacter baumannii, A473, A. baumannii A473, +0.06 μg/ml PB, 2nd experiment, read-out: MBC
In short: as §1

A. baumannii NCTC 13301 [13] = assay: as above; format: cell-based, Acinetobacter baumannii; details: Acinetobacter baumannii
In short: as §1

A. baumannii A401 [14] = assay: MIC without and with sub-inhibitory polymyxin B (Example 4); format: cell-based, Acinetobacter baumannii; details: for MIC: Acinetobacter baumannii
A. baumannii A401 [15] = assay: Preliminary MBC without and with sub-inhibitory polymyxin B (Example 4); format: cell-based, Acinetobacter baumannii; details: Acinetobacter baumannii, A401, A baumannii A 401, +0.06 μg/ml PB, 2nd experiment, read-out: MBC
A. baumannii A473 [16] = assay: MIC without and with sub-inhibitory polymyxin B (Example 4); format: cell-based, Acinetobacter baumannii; details: +0.06 μg/ml PB, 2nd experiment
A. baumannii A489 [17] = assay: as above; format: cell-based, Acinetobacter baumannii
A. baumannii A489 [18] = assay: Preliminary MBC without and with sub-inhibitory polymyxin B (Example 4); format: cell-based, Acinetobacter baumannii; details: Acinetobacter baumannii, preliminary MBC
A. baumannii NCTC 13301 [19] = assay: MIC without and with sub-inhibitory polymyxin B (Example 4); format: cell-based, Acinetobacter baumannii
A. baumannii NCTC 13301 [20] = assay: as above; format: cell-based, Acinetobacter baumannii; details: A. baumannii NCTC 13301; +[…] PB; 2nd experiment
A. baumannii A14 [21] = assay: as above; format: cell-based, Acinetobacter baumannii; details: 1st experiment
A. baumannii A14 [22] = assay: Preliminary MBC without and with sub-inhibitory polymyxin B (Example 4); format: cell-based, Acinetobacter baumannii; details: A. baumannii A14; +0.06 μg/ml polymyxin B; preliminary MBC; 1st experiment
[23] = ratio, PB 0.06 μg/ml, 1st experiment
[24] = A. baumannii A489, +[…] PB, 2nd experiment

Structure (SMILES): Cc1c(-c2ccc(CN)cc2)c(F)cn2c(=O)c(C(=O)O)cc(C3CC3)c12 [Compound 6, 8-(4-aminomethyl-phenyl)-1-cyclopropyl-7-fluoro-9-methyl-4-oxo-quinolizine-3-carboxylic acid]
- MIC without PB/MIC + PB (A. baumannii ATCC 19606 [1]; +0.06 μg/ml PB, 2nd experiment): 4
- MIC without PB/MIC + PB (A. baumannii ATCC 19606 [1]; [23]): 8
- MIC (A. baumannii ATCC 19606 [1]; ATCC19606, A. baumannii ATCC 19606, +0.06 μg/ml PB, 2nd experiment, read-out: MIC): 0.06 µg/mL (≈ 0.164 µM)
- MIC (A. baumannii ATCC 19606 [1]; ATCC19606, read-out: MIC +0.06 μg/ml PB, A. baumannii ATCC 19606, +0.06 μg/ml polymyxin B, 1st experiment): 0.06 µg/mL
- MBC (A. baumannii ATCC 19606 [2]; ATCC19606, A. baumannii ATCC 19606, +0.06 μg/ml PB, 2nd experiment, read-out: MBC): 0.06 µg/mL (≈ 0.164 µM)
- MBC (A. baumannii ATCC 19606 [2]; ATCC19606, read-out: MBC +0.06 μg/ml PB, A. baumannii ATCC 19606, +0.06 μg/ml polymyxin B, 1st experiment): 0.06 µg/mL
- MIC without PB/MIC + PB (A. baumannii J2 [3]; +[…] PB, 2nd experiment): 32
- MIC without PB/MIC + PB (A. baumannii J2 [3]; ratio, PB […], 1st experiment): 16
- MIC (A. baumannii J2 [3]; J2): 0.25 µg/mL (≈ 0.682 µM)
- MIC (A. baumannii J2 [3]; J2, read-out: MIC +[…] PB, A. baumannii J2, +[…] polymyxin B, 1st experiment): 1 µg/mL (≈ 2.73 µM)
- MBC (A. baumannii J2 [4]; J2): 0.25 µg/mL (≈ 0.682 µM)
- MBC (A. baumannii J2 [4]; J2, read-out: MBC +[…] PB, A. baumannii J2, +[…] polymyxin B, preliminary MBC, 1st experiment): 1 µg/mL (≈ 2.73 µM)
- MIC [5]: 2 µg/mL (≈ 5.46 µM)
- MIC without PB/MIC + PB ([5]; Acinetobacter spp. H064200250 (OXA51), +[…] PB, 2nd experiment): 8
- MIC without PB/MIC + PB ([5]; Acinetobacter spp. H064200250, ratio, PB […], 1st experiment): 2
- MIC ([5]; read-out: MIC +[…] PB, Acinetobacter spp. H064200250, +[…] polymyxin B, 1st experiment): 4 µg/mL (≈ 10.9 µM)
- MBC [6]: 1 µg/mL (≈ 2.73 µM)
- MBC ([6]; read-out: MBC +[…] PB, Acinetobacter spp. H064200250, +[…] polymyxin B, preliminary MBC, 1st experiment): 4 µg/mL (≈ 10.9 µM)
- MIC without PB/MIC + PB (A. baumannii A329 [7]; A. baumannii A329): 2
- MIC (A. baumannii A329 [7]; Acinetobacter baumannii, A329, A. baumannii A329, read-out: MIC): 8 µg/mL (≈ 21.8 µM)
- MBC (A. baumannii A329 [8]): 8 µg/mL (≈ 21.8 µM)
- MIC without PB/MIC + PB (A. baumannii A387 [9]; +0.06 μg/ml PB, 2nd experiment): 4
- MIC without PB/MIC + PB (A. baumannii A387 [9]; [23]): 8
- MIC (A. baumannii A387 [9]; A387, A. baumannii A387, +0.06 μg/ml PB, 2nd experiment, read-out: MIC): 1 µg/mL (≈ 2.73 µM)
- MIC (A. baumannii A387 [9]; A387, read-out: MIC +0.06 μg/ml PB, A. baumannii A387, +0.06 μg/ml polymyxin B, 1st experiment): 0.5 µg/mL
- MBC (A. baumannii A387 [10]; A387, A. baumannii A387, +0.06 μg/ml PB, 2nd experiment, read-out: MBC): 1 µg/mL (≈ 2.73 µM)
- MBC (A. baumannii A387 [10]; A387, read-out: MBC +0.06 μg/ml PB, A. baumannii A387, +0.06 μg/ml polymyxin B, 1st experiment): 0.5 µg/mL
- MBC (A. baumannii A14 [11]; A. baumannii A14, +0.06 μg/ml PB): 8 µg/mL (≈ 21.8 µM)
- MBC (A. baumannii A14 [11]; Acinetobacter baumannii, A14, A. baumannii A14, without PB, read-out: MBC): 16 µg/mL (≈ 43.7 µM)
- MBC (A. baumannii A390): 2 µg/mL (≈ 5.46 µM)
- MBC (A. baumannii A473 [12]): 2 µg/mL (≈ 5.46 µM)
- MBC (A. baumannii NCTC 13301 [13]; NCTC13301): 2 µg/mL (≈ 5.46 µM)
- MBC (A. baumannii NCTC 13301 [13]; NCTC13301, read-out: MBC +[…] PB): 4 µg/mL (≈ 10.9 µM)
- MIC without PB/MIC + PB (A. baumannii A401 [14]; A baumannii A 401, ratio, PB 0.06 μg/ml, 1st experiment): 4
- MIC (A. baumannii A401 [14]; A401, A baumannii A 401, +0.06 μg/ml PB, 2nd experiment, read-out: MIC): 4 µg/mL (≈ 10.9 µM)
- MIC (A. baumannii A401 [14]; A401, read-out: MIC +0.06 μg/ml PB, A baumannii A 401, +0.06 μg/ml polymyxin B, 1st experiment): 4 µg/mL
- MBC (A. baumannii A401 [15]): 32 µg/mL (≈ 87.3 µM)
- MIC without PB/MIC + PB (A. baumannii A473 [16]; A. baumannii A473): 4
- MIC (A. baumannii A473 [16]; Acinetobacter baumannii, A473, A. baumannii A473, read-out: MIC): 2 µg/mL (≈ 5.46 µM)
- MIC (A. baumannii A489 [17]; [24]): 0.5 µg/mL (≈ 1.36 µM)
- MIC without PB/MIC + PB (A. baumannii A489 [17]; [24]): 8
- MIC without PB/MIC + PB (A. baumannii A489 [17]; A. baumannii A489, ratio, PB […], 1st experiment): 16
- MIC (A. baumannii A489 [17]; Acinetobacter baumannii, A489, read-out: MIC +[…] PB, A. baumannii A489, +[…] polymyxin B, 1st experiment): 0.5 µg/mL (≈ 1.36 µM)
- MBC (A. baumannii A489 [18]; A489, A. baumannii A489, +[…] PB, 2nd experiment, read-out: MBC): 0.5 µg/mL (≈ 1.36 µM)
- MBC (A. baumannii A489 [18]; A489, read-out: MBC +[…] PB, A. baumannii A489, +[…] polymyxin B, 1st experiment): 1 µg/mL (≈ 2.73 µM)
- MIC without PB/MIC + PB (A. baumannii NCTC 13301 [19]; A. baumannii NCTC 13301, ratio, PB […], 1st experiment): 32
- MIC (A. baumannii NCTC 13301 [19]; Acinetobacter baumannii, NCTC13301, read-out: MIC +[…] PB): 1 µg/mL (≈ 2.73 µM)
- MIC without PB/MIC + PB (A. baumannii NCTC 13301 [20]): 16
- MIC +0.06 μg/ml PB (A. baumannii A14 [21]; +0.06 μg/ml polymyxin B): 8 µg/mL
- MIC without PB/MIC + PB (A. baumannii A14 [21]; ratio, PB 0.06 μg/ml): 4
- MBC +0.06 μg/ml PB (A. baumannii A14 [22]): 8 µg/mL
